{"source": "patent US8609173B2", "about": "“Compositions comprising sweetness enhancers and methods of making them” (Senomyx Inc., priority 2008, dated 2013)", "system": "Panelists", "test": "Paired comparison taste test, flavored water", "format": "in vivo, Human", "protocol": "Two sweetened water solutions were prepared and compared: Flavored Water with 9% Sucrose vs. Flavored Water with 6% Sucrose+2.3 ppm (6.49 μM) of 5-(neopentyloxy)-1H-benzo[c][1,2,6]thiadiazin-4-amino-2,2-dioxide.\nMixing procedures: Dissolve acid into the water using a Lightnin® blender, mix for 5 minutes. Add sugar and continue to mix until dissolved. Add flavors last. Dissolve Compound A into a 0.50% propylene glycol mixture, add last and mix for another 5 minutes. Procedure:\nPanelists evaluated two sweetened water solutions in a paired comparison taste test procedure and were instructed to select the sweeter of the two samples. They perform a total of three paired comparison tests each containing the following samples: Flavored Water with 9% Sucrose vs. Flavored Water with 6% Sucrose+2.3 ppm (6.49 μM) 5-(neopentyloxy)-1H-benzo[c][1,2,6]thiadiazin-4-amino-2,2-dioxide.\nTwo sweetened water solutions were prepared and compared: Flavored Water with 9% Sucrose vs. Flavored Water with 6% Sucrose+2.44 ppm (6.49 μM) of 3-(4-amino-2,2-dioxide-1H-benzo[c][1,2,6]thiadiazin-5-yloxy)-2′,2′-dimethyl-N-propylpropanamide.\nPanelists evaluated two sweetened water solutions in a paired comparison taste test procedure and were instructed to select the sweeter of the two samples. They perform a total of three paired comparison tests each containing the following samples: Flavored Water with 9% Sucrose vs. Flavored Water with 6% Sucrose+2.44 ppm (6.49 μM) 3-(4-amino-2,2-dioxide-1H-benzo[c][1,2,6]thiadiazin-5-yloxy)-2′,2′-dimethyl-N-propylpropanamide.", "data": [{"smiles": "CCCNC(=O)C(C)(C)COc1cccc2c1C(N)=NS(=O)(=O)N2", "note": "[3-(4-amino-2,2-dioxide-1H-benzo[c][1,2,6]thiadiazin-5-yloxy)-2′,2′-dimethyl-N-propylpropanamide]", "values": [{"measurement": "Sample selected as sweeter by panelists, Total", "setting": "Flavored Water with 6% Sucrose + 2.44 ppm (6.49 μM) compound chosen, vs 9% Sucrose, n = 42", "value": 20}, {"measurement": "Sweetness comparison (conclusion)", "setting": "Flavored Water with 6% Sucrose + 2.44 ppm (6.49 μM) compound vs 9% Sucrose, p>0.10", "value": "not significantly different in sweetness"}]}]}
